Laboratory results reported in ChEMBL document CHEMBL4312024, “Optimization of piperazine-derived ureas privileged structures for effective antiadenovirus agents” (Eur J Med Chem, 2020).
Active and inactive are the calls of the source. The rule behind the calls is not given here.

Tests used:
[1] = tested on: Human adenovirus 5; assay: Antiviral activity against Human adenovirus 5 infected in HEK293beta5 cells coexpressing GFP assessed as inhibition of plaque formation at 10 uM incubated for 7 days relative to control; assay type: functional; conditions: Human mastadenovirus C, 168 h
[2] = tested on: Human adenovirus 5; assay: Antiviral activity against Human adenovirus 5 infected in HEK293beta5 cells coexpressing GFP assessed as inhibition of plaque formation incubated for 7 days; assay type: functional, organism-based; conditions: Human mastadenovirus C, 168 h
[3] = Selectivity Index, ratio of CC50 for human A549 cells to IC50 for Human adenovirus 5 infected in HEK293beta5 cells coexpressing GFP; assay type: toxicity, cell-based; conditions: read-out: Ratio CC50/IC50
[4] = tested on: Human adenovirus 5; assay: Antiviral activity against Human adenovirus 5 infected in A549 cells assessed as fold reduction in virus yield at 50 uM incubated for 48 hrs by endpoint dilution method relative to control; assay type: functional
[5] = tested on: Human adenovirus 5; assay: Antiviral activity against Human adenovirus 5 infected in A549 cells assessed as nuclear associated viral DNA copies at 50 uM incubated for 45 mins by qRT-PCR analysis; assay type: functional, organism-based
[6] = tested on: Human adenovirus 5; assay: Antiviral activity against Human adenovirus 5 infected in A549 cells assessed as decrease in […] cDNA copies at 50 uM incubated for 24 hrs by qRT-PCR analysis; assay type: functional, organism-based
[7] = tested on: Human adenovirus 5; assay: Antiviral activity against Human adenovirus 5 infected in A549 cells assessed as decrease in […] cDNA copies incubated for 24 hrs by qRT-PCR analysis; assay type: functional, organism-based
[8] = tested on: Human betaherpesvirus 5; assay: Antiviral activity against Human cytomegalovirus infected in MRC5 cells assessed as decrease in viral DNA copies at 50 uM incubated for 72 hrs by qRT-PCR analysis; assay type: functional, organism-based
[9] = Stability in Syrian hamster serum assessed as parent compound remaining at 1 uM measured immediately by LC-MS/MS analysis; assay type: ADME, cell-free, Mesocricetus auratus; conditions: read-out: Stability
[10] = Stability in Syrian hamster serum assessed as parent compound remaining at 1 uM measured after 15 mins by LC-MS/MS analysis; assay type: ADME, cell-free, Mesocricetus auratus; conditions: for remaining at 0.25 h, 1 µM: read-out: Stability
[11] = Stability in Syrian hamster serum assessed as parent compound remaining at 1 uM measured after 30 mins by LC-MS/MS analysis; assay type: ADME, cell-free, Mesocricetus auratus; conditions: for remaining at 0.5 h, 1 µM: read-out: Stability
[12] = Stability in Syrian hamster serum assessed as parent compound remaining at 1 uM measured after 60 mins by LC-MS/MS analysis; assay type: ADME, cell-free, Mesocricetus auratus; conditions: read-out: Stability
[13] = Stability in Syrian hamster serum assessed as parent compound remaining at 1 uM measured after 120 mins by LC-MS/MS analysis; assay type: ADME, cell-free, Mesocricetus auratus; conditions: read-out: Stability
[14] = Cytotoxicity against human A549 cells assessed as reduction in cell viability incubated for 48 hrs by alamarBlue assay; assay type: cell-based

IC50 [2] | remaining at 0 min, 1 µM [9] | remaining at 0.25 h, 1 µM [10] | remaining at 0.5 h, 1 µM [11] | remaining at 1 h, 1 µM [12] | remaining at 2 h, 1 µM [13] | Stability ([10]; 0.25 h, 1 µM) | Stability ([11]; 0.5 h, 1 µM) | SMILES | inhibition at 10 µM [1] | selectivity ratio [3] | fold change (FC) [4] | Activity [5] | Activity [6] | Activity [7] | Activity [8] | CC50 at 48 h [14]
2 µM | 100% | – | – | 114% | 107% | 142.7% | 139.4% | CC1CN(C(=O)Cc2ccccc2)CCN1C(=S)Nc1ccc([N+](=O)[O-])cc1 (stereo not drawn) | 98.2% | 105 | 25.6 | Active | inactive | – | Active | 210 µM
0.7 µM | 100% | 97.2% | 110% | 90.5% | 100% | – | – | O=C(Cc1ccccc1)N1CCN(C(=S)Nc2cc(C(F)(F)F)cc(C(F)(F)F)c2)C(c2ccccc2)C1 (stereo not drawn) | 100% | 149 | 1690 | Active | – | – | – | 104 µM
2.1 µM | – | – | – | – | – | – | – | Cc1ccc(NC(=S)N2CCN(C(=O)CC3CCCCC3)CC2C)cc1 (stereo not drawn) | 95.8% | 58.2 | 39.1 | Active | inactive | – | Active | 122 µM

The next lines start with the molecule.

SMILES | IC50 [2] | remaining at 0 min, 1 µM [9] | remaining at 0.25 h, 1 µM [10] | remaining at 0.5 h, 1 µM [11] | remaining at 1 h, 1 µM [12] | remaining at 2 h, 1 µM [13] | Stability ([10]; 0.25 h, 1 µM) | Stability ([11]; 0.5 h, 1 µM) | inhibition at 10 µM [1] | selectivity ratio [3] | fold change (FC) [4] | Activity [5] | Activity [6] | Activity [7] | Activity [8] | CC50 at 48 h [14]
CC1CN(C(=O)Cc2ccccc2)CCN1C(=S)Nc1cc(C(F)(F)F)cc(C(F)(F)F)c1 (stereo not drawn) | 5.1 µM | 100% | 109% | 107% | 96.5% | 92.8% | – | – | 73.4% | 25.4 | 33.4 | Active | Active | Dose-dependent effect | Active | –
CC[C@H](C)[C@@H]1NC(=O)CNC(=O)[C@@H]2Cc3c([nH]c4cc(O)ccc34)[S@+]([O-])C[C@H](NC(=O)CNC1=O)C(=O)N[C@@H](CC(N)=O)C(=O)N1C[C@H](O)C[C@H]1C(=O)N[C@@H]([C@@H](C)[C@@H](O)CO)C(=O)N2 | – | – | – | – | – | – | – | – | – | – | – | – | – | Dose-dependent effect | – | –
CC1CN(C(=O)OC(C)(C)C)CCN1C(=S)Nc1ccc(F)cc1 (stereo not drawn) | 1.8 µM | 100% | 97.8% | 102% | 86.5% | 75.4% | – | – | 92.9% | 111 | 12.1 | Active | – | – | – | 200 µM
CC1CN(C(=O)CC2CCCCC2)CCN1C(=S)Nc1ccc(F)cc1 (stereo not drawn) | 0.6 µM | 100% | 117% | 96.4% | 85% | 67.3% | – | – | 100% | 238 | 30.5 | Active | – | – | – | 143 µM
